Data on two molecules can be found in PMC2680759, “Non-Invasive Molecular Imaging of Fibrosis Using a Collagen-Targeted Peptidomimetic of the Platelet Collagen Receptor Glycoprotein VI” (PLoS ONE, 2009).

In one data set the test system is 9O12.2 IgG. Description: SPR, 9O12.2 IgG injected over immobilized B-collagelin. Conditions: SPR, peptide reduced by DTT on the sensorchip, IgG 8 µg/ml. The data set is classed as binding. The method, then: (§1) 9O12.2 IgG was injected over biotin-peptides coupled to an SA-sensorchip in a Biacore 2000 instrument. […] In some experiments, the peptide was reduced by DTT on the sensor chip before the IgG was injected. Competition experiments were performed by mixing the IgG with recombinant soluble GPVI (25 µg.mL^−1). Collagen binding to the peptide was analyzed by injecting type-I collagen (200 µg.mL^−1) onto the peptide-coated sensorchip. Conversely, biotin-peptides (125, 250, 500 and 1000 µg.mL^−1) were perfused over fibrillar collagen immobilized on a CM5-sensorchip.
(Surface plasmon resonance follows binding to a sensor surface in real time, without labels.)

Data set [1] has as its system fibrotic myocardial infarction scar. Type of data set: in vivo, rat. Conditions: rat, in vivo. The protocol: Myocardial infarction of the left ventricle was induced in rats as follows. Male Wistar rats (CERJ, France) were housed in a controlled environment and fed with a standard rat chow. Myocardial infarction of the left ventricle was induced by ligature of the left descending coronary artery performed under general anesthesia [1 mL.kg^−1 i.p. ketamine (Imalgene 500, Merial) and 0.5 mL.kg^−1 i.p. xylazine (Rompun, Bayer)] and positive pressure ventilation, as described. This protocol was performed under a permit from the French Veterinary Services Directorate.
Two types of control animals were used: healthy rats, and healthy rats which had undergone a simple throracotomy (sham-operated). ^99mTc-biotin-collagelin blood kinetics and biodistribution were investigated by counting blood samples (taken from a jugular catheter) for 6 h after i.v. injection, and organs (extracted after sacrifice) 2 h after injection in a gamma-counter, together with aliquots of the injected preparation (CobraII, Packard, Meriden, USA). Ex vivo myocardial labeling and isotopic imaging were performed 4 weeks after the coronary ligature (or throracotomy), when the lesions had had the time to heal.
For in vivo experiments, radiotracers (70 MBq) were administered i.v. to anesthetized animals (pentobarbital i.p. 6 mg/100 g BW, Ceva Santé Animale, France) within 2 h of radiolabeling. Scintigraphic images were obtained 0–2 h, 4 h, 6 h, 10 h and 24 h after injecting ^99mTc-streptavidin-biotin peptides and 0–3 h after injecting ^99mTc-biotinylated peptides. Planar and tomographic 1-h acquisitions were performed using a dedicated small animal γIMAGER system (Biospace Lab, Paris, France) equipped with 2 parallel low-energy high-resolution collimators (matrix 128×128, 15% energy window centered on 140 KeV). Tracer uptake in the left cardiac area was assessed visually. Two regions of interest were drawn on the scintigrams, over the heart and over the right lung. The mean activity (cpm) per pixel was determined in each region of interest. Then heart-to-lung activity ratios (HLR) were calculated on both planar and transversal tomographic images.

For data set [2], the system named is collagen rich lesions of fibrotic lungs. Description: Histochemical analysis of healthy and fibrotic lung sections. Details: species or system mouse. The settings on record: paraffin embedded lung sections of bleomycin-treated mice, HRP-coupled streptavidin. The protocol:
Figure 6 Imaging of lung fibrosis. A: Paraffin embedded sections of lungs from a bleomycin-treated mice were incubated with B-collagelin and detected using HRP-coupled streptavidin. Sections were counter-stained with hematoxylin. Contiguous serial sections were stained with picrosirius red. Representative images are shown. B: Whole body planar scintigraphy of a bleomycin-treated mouse (left) and a control mouse (right). Representative images acquired one hour after the injection of 99mTc-collagelin are shown. C: Corresponding lung autoradiography and histology (picrosirius staining) showing the colocalisation of 99mTc-collagelin with fibrosis. D: Lung autoradiogaphy and histology from a mice treated with the control 99mTc-Pc.

The test system of another data set is platelet function. As to the kind of experiment: Effect on platelet function. Conditions: stated in discussion, no method given.
Another data set concerns the target T1, vitronectin (Rattus norvegicus, UniProt F7F5X0).
T1 sequence (F7F5X0 20-490): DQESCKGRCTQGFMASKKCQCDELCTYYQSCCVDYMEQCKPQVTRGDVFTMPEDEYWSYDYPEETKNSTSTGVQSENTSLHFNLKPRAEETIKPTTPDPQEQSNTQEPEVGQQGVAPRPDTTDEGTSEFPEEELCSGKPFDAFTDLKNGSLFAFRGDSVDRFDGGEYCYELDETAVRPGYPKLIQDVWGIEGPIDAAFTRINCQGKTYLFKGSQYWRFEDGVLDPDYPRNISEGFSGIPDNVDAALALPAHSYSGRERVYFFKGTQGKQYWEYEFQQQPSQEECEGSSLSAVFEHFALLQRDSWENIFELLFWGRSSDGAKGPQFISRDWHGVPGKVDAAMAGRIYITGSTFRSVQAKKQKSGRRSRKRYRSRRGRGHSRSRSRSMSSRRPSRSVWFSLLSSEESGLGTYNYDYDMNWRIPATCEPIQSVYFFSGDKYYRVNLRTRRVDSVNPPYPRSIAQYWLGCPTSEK
As to the kind of experiment: Solid phase assay, vitronectin. Type of data set: binding. Conditions: biotin-peptide 50 µg/mL, microtitration plate, n = 3. The protocol:
Biotin-peptides (50 µg.mL^−1) were incubated on microtitration wells, coated with 1 µg of type-I collagen, convulxin, collagen related peptides, bovine fibrinogen, human fibronectin, rat vitronectin, murine laminin or bovine serum albumin. Bound peptides were detected using HRP-coupled extravidin and the HRP substrate O-phenyl-dianisidine.

The test system of data set [3] is collagen fibers of the infarct scars. Description: Post mortem autoradiography of frozen myocardial sections. The data set is classed as in vivo, rat. Conditions: 99mTc-streptavidin-coupled peptides. The protocol:
After sacrificing the animals, the heart was removed and frozen, then 20-micrometer thick myocardial sections were cut perpendicular to the short axis of the ventricles in a cryostat, and exposed in a radioimager for 16 h. According to calibration studies performed with activity standards of tissue-equivalent homogenates, 50 counts/mm^2 of ^99m Tc-labeled tracers corresponded to ∼210 kBq/mg in autoradiography. The myocardial sections used for autoradiography, and contiguous heart sections (5 µm) fixed in acetone (−20°C), were stained with hematoxylin-eosin, Masson's trichrome and picrosirius red to determine the location and extent of the fibrotic myocardial scarring.

In data set [4] the test system is collagen in sections of rat aorta and tail tendon. Description: Histochemical analysis of rat aorta and tail tendon sections. Conditions: frozen sections of rat aorta and tail tendon, biotin-peptide 200 µg/mL, HRP-coupled streptavidin. The method, then:
Sections were counter-stained with hematoxylin-eosin (Merck). Collagen was stained using picrosirius red. Sections ([…]) of rat tail tendon were processed as above.

Data set [5] has as its target fibrillar type I collagen (Homo sapiens, UniProt P02452+P08123). Description: SPR, biotin-peptides perfused over collagen-coated sensorchip. The data set is classed as binding. Conditions: fibrillar type I collagen on CM5-sensorchip. The method, then: as §1

Bridges are numbered along the chain shown (N, C = ends). Where no end group is shown, it is not given here.

fibrillar type I collagen, sequence (P02452 162-1218 limits assumed): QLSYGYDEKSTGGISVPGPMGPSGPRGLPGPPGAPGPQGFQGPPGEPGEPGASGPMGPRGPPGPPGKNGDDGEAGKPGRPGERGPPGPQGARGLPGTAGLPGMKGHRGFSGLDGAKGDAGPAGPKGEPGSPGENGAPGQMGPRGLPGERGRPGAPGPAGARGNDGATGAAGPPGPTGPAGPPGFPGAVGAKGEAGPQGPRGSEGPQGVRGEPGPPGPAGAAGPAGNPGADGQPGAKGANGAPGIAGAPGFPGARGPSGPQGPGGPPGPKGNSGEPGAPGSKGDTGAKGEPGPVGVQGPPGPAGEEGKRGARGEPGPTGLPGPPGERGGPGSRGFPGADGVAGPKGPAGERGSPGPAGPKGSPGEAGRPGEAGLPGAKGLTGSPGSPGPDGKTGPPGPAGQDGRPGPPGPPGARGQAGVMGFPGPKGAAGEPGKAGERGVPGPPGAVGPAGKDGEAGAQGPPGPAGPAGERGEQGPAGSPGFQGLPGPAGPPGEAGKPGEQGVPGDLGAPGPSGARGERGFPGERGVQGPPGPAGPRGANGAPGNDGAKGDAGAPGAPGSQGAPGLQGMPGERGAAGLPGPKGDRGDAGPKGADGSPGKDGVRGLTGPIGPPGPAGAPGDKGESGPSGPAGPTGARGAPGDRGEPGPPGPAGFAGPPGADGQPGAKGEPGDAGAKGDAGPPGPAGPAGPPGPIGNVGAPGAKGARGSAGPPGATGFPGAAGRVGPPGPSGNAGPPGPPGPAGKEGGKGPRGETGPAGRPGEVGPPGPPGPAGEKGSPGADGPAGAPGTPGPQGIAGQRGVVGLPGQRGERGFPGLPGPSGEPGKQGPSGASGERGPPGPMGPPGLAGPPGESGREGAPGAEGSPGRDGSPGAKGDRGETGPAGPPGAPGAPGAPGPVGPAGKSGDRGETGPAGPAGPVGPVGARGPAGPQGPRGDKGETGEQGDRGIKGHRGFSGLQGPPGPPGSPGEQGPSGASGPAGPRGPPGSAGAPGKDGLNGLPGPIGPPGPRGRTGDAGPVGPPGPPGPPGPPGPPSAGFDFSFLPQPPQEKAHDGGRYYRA
fibrillar type I collagen, sequence (P08123 80-1119 limits assumed): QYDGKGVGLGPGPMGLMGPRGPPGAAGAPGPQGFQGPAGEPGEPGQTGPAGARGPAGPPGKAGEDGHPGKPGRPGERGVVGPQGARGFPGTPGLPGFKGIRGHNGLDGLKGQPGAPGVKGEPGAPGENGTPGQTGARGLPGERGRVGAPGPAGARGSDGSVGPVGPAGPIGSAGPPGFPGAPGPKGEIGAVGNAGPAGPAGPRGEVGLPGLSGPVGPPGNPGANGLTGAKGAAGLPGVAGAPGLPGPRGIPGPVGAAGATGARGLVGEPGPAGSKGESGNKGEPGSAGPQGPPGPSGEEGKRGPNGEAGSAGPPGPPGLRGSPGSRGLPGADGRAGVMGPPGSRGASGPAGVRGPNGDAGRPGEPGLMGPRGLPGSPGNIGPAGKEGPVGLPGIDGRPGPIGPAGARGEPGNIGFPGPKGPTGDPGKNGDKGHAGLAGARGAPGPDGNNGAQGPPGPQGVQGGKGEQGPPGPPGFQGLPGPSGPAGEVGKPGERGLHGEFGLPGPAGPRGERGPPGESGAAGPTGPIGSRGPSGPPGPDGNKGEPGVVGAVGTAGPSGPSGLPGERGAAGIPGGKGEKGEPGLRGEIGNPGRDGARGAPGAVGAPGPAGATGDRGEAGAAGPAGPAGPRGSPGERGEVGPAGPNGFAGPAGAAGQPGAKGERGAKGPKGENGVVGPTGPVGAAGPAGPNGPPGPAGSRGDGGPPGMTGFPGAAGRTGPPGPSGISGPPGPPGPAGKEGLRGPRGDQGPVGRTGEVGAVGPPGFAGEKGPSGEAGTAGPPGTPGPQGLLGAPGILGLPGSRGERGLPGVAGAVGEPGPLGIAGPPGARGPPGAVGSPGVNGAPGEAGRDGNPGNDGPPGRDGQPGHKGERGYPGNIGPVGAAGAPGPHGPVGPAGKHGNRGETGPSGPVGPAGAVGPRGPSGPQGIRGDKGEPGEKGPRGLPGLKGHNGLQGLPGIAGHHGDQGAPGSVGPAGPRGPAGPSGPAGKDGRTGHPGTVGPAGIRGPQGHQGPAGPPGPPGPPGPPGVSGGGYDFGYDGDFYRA

Regarding `CSCC[C@@H]1NC(=O)[C@H](C(C)C)NC(=O)[C@H](CCCNC(=N)N)NC(=O)CNC(=O)[C@@H]2CCCN2C(=O)[C@@H](NC(=O)CNC(=O)[C@H](CO)NC(=O)CNC(=O)[C@H](CO)NC(=O)CCCC[C@@H]2SC[C@@H]3NC(=O)N[C@@H]32)CSSC[C@@H](C(N)=O)NC(=O)[C@@H]2CCCN2C(=O)CNC(=O)[C@H](CCC(=O)O)NC(=O)[C@H](CC(=O)O)NC(=O)[C@H](CC(=O)O)NC(=O)CNC(=O)[C@H](CC(C)C)NC(=O)[C@H](Cc2c[nH]cn2)NC(=O)[C@H](CC(C)C)NC(=O)CNC(=O)[C@H](Cc2c[nH]cn2)NC1=O` [collagelin], the “Binding of 9O12.2 IgG to reduced collagelin” value in the data set with 9O12.2 IgG is on record as “did not bind”. Besides, in data set [1], the “Accumulation of the tracer in the skin of the animals” value was “did not notice any accumulation” and the “Uptake in bone marrow” value is “low level”. Also, in data set [2], the “Histochemical staining of lung sections” value is given as “coincided with the collagen rich lesions”. The “Effect on platelet function” value in the data set on platelet function is reported as “no effect”. Further, at vitronectin, the “Binding to immobilized vitronectin” value is on record as “either to be weak or not to occur at all”.

In the case of “SGSGCGPQGARGLTGASAGGPC (disulfide 5-22 (inferred)) [reference compound]”, the “Autoradiographic labeling of the infarct scar” value in data set [3] (frozen myocardium sections 6-8 hours after injection) was “little or no uptake”. In data set [3] (rats with MI, mean±SEM, p<0.006), the “Mean infarct-to-remote myocardium radioactivity ratio” value was found to be 1.82±0.32. Further, in data set [4], the “Histochemical staining of tissue collagen” value is “not”. In addition, the “Binding to collagen-coated sensorchip” value in data set [5] was “did not bind”. Also, the “Binding to immobilized vitronectin” value on vitronectin is listed as “did not bind”.
